Measured values: US20260041093A1, “Ionic Derivatives Of Aromatic Carboxylic Acid For Use As Plant Stimulants, Method For Stimulating Plants And Use Of These Derivatives For Manufacturing Compositions For Stimulating Plants” (FUNDACJA UNIWERSYTETU IM. ADAMA MICKIEWICZA W POZNANIU, priority 2022, published 2026)

Columns and labels:
Brome Mosaic Virus (BMV) = assay: Protection of barley against Brome Mosaic Virus infection by watering (Examples 28 and 29); assay type: in vivo; conditions: 2 weeks after infection
[1] = test system: tobacco mosaic virus (TMV); assay: Direct effect on TMV infectivity: virus incubated with substance, then Xanthi tobacco leaves infected (Example 21); assay type: in vivo; conditions: TMV about 3 μg/ml mixed 1:1 with substance 80 mg/L, 30 min; 5 days after infection; control 100
Protocol: Sodium 3-chlorosalicylate; 5. Potassium 3-chlorosalicylate; 6. Calcium 3-chlorosalicylate; 7. Magnesium 3-chlorosalicylate (concentration 80 mg/L), in a 1:1 ratio and incubated for 30 min at room temperature. The control variant consisted of TMV incubated in water. All virus suspensions were used to mechanically infect Xanthi tobacco leaves, whose reaction to infection is manifested in easily quantifiable local necrotic spots (hypersensitivity, local infection).
After 5 days, the area of leaf covered by necrotic spots compared to total leaf area was calculated for plants of all variants of treatment.

[2] = test system: Pseudomonas syringae pv. Tomato (Pst); assay: Protection of tomato against Pseudomonas syringae pv. Tomato by watering (Example 32); assay type: in vivo; conditions: 80 mg/L; watered twice; Pst 10^5; 2 weeks after infection
Protocol: Tomato plants, at the stage of the first pair of developed true leaves, were watered twice with a solution of substance 1-6 at a concentration of 80 mg/L, at a weekly interval. The control was tomato plants watered only with water. One week after the second treatment, a suspension of Pst bacteria at a concentration of 10^5 was spot-injected into the leaves using an insulin syringe (without a needle). The suspension was prepared from a two-day culture of Pst on solid medium. Protection against biotic stress was evaluated by the proliferation of bacteria in the leaves at the insertion site and the formation of a necrotic spot, compared to the control.

poinsettia = conditions: treated three times, 50 mg/L; not watered for 7 days; control plants wilted
From the text: The plants were then subjected to drought stress—they were not watered for 7 days.

powdery mildew fungus = assay type: in vivo, tomato; conditions: 80 mg/L, watered twice; 2 weeks after infection
Protocol: Tomato plants, at the stage of the first pair of developed true leaves, were watered twice with a solution of substance 1-32 at a concentration of 80 mg/L, at a weekly interval. The control was tomato plants watered only with water. […] The suspension was prepared from culture on solid medium. Protection against biotic stress was evaluated by comparing the area of leaves affected by infection.

Q: Which results are given for `C[N+](C)(C)CCO.O=C([O-])c1cccc(Cl)c1O` [choline 3-chlorosalicylate]?
A: % reduction in necrotic spots compared to control (Brome Mosaic Virus (BMV); 10 mg/L, watered): 69%; % reduction in necrotic spots compared to control (Brome Mosaic Virus (BMV); 80 mg/L, watered twice): 100%; % reduction in necrotic spots compared to control (Brome Mosaic Virus (BMV); 80 mg/L, watered twice, listed as 2-hydroxyethyl(trimethyl)ammonium 3-chlorosalicylate): 98%; % of necrotic spots [1]: 98%; % reduction in necrotic spots compared to control [2]: 92%; drought effects on the plants (poinsettia): no drought effects were observed; % reduction in necrotic spots compared to control (powdery mildew fungus): 95%
